The source made the active and inactive calls. The calls are words filed in the database; no cut-off is given here.
Columns and labels:
[1] = molecular target: T1, Cyclin-dependent kinase 12/13 (Homo sapiens) (UniProt Q14004+Q9NYV4); conditions: Jurkat, dose 500.0 nM, time 4.0 hrs
[2] = molecular target: T1, Cyclin-dependent kinase 12/13 (Homo sapiens); conditions: Jurkat, dose 500.0 nM, time 6.0 hrs
[3] = molecular target: T1, Cyclin-dependent kinase 12/13 (Homo sapiens); conditions: Jurkat, dose 25.0 nM, time 6.0 hrs

inhibition [1] | inhibition [2] | inhibition [3] | Compound
Active | – | – | C=CC(=O)Nc1ccc(C(=O)N2CCC[C@@H](Nc3ncc(SCc4ncc(C(C)(C)C)o4)s3)C2)c(C)c1
– | Active | – | CN(C)C/C=C/C(=O)NC1CCCC(C(=O)Nc2ncc(SCc3ncc(C(C)(C)C)o3)s2)C1 (stereo not given)
– | Active | inactive | C=CC(=O)Nc1cccc(C(=O)N2CCCC(Nc3ncc(SCc4ncc(C(C)(C)C)o4)s3)C2)c1 (stereo not given)
– | Active | – | C=CC(=O)Nc1ccc(OC(=O)N2CCC[C@@H](Nc3ncc(SCc4ncc(C(C)(C)C)o4)s3)C2)cc1

Source: ChEMBL document CHEMBL4739712, “Inhibitors of cyclin-dependent kinases” (2020)
